Experimental data from ChEMBL document CHEMBL6153025, “Multidrug-resistant bacteria quorum-sensing inhibitors: A particular focus on Pseudomonasaeruginosa” (Eur J Med Chem, 2025).

Assays:
Pseudomonas aeruginosa [1] = assay: Antibiofilm activity against Pseudomonas aeruginosa PAO1 assessed as inhibition of biofilm formation at 1 to 100 uM incubated for 24 hrs by crystal violet staining based assay relative to control; assay type: functional; set-up: scale not given: the % may be the effect or the level left; conditions: dose 1-100 µM
Pseudomonas aeruginosa [2] = assay: Inhibition of rhamnolipid production in Pseudomonas aeruginosa PAO1 incubated for 24 hrs by spectrophotometric analysis; assay type: functional, organism-based; conditions: PAO1, 24 h
Pseudomonas aeruginosa [3] = assay: Downregulation of rhlR mRNA expression in Pseudomonas aeruginosa PAO1 incubated for 4 hrs by RT-qPCR analysis; assay type: functional, organism-based; conditions: PAO1, 4 h
Pseudomonas aeruginosa [4] = assay: Antibiofilm activity against Pseudomonas aeruginosa assessed as reduction in biofilm formation incubated for 24 hrs relative to control; assay type: functional; set-up: scale not given: the % may be the effect or the level left
Pseudomonas aeruginosa [5] = assay: Anti-virulence activity against Pseudomonas aeruginosa assessed as reduction in protease production level at 100 uM incubated for 24 hrs by absorbance based assay relative to control; assay type: functional; set-up: scale not given: the % may be the effect or the level left
Pseudomonas aeruginosa [6] = assay: Anti-virulence activity against Pseudomonas aeruginosa assessed as reduction in pyocyanin production level at 100 uM incubated for 24 hrs by absorbance based assay relative to control; assay type: functional; set-up: scale not given: the % may be the effect or the level left
Pseudomonas aeruginosa [7] = assay: Downregulation of lasR mRNA expression in Pseudomonas aeruginosa PAO1 incubated for 4 hrs by RT-qPCR analysis; assay type: functional, organism-based; conditions: PAO1, 4 h
Pseudomonas aeruginosa [8] = assay: Downregulation of lasB mRNA expression in Pseudomonas aeruginosa PAO1 incubated for 4 hrs by RT-qPCR analysis; assay type: functional, organism-based; conditions: PAO1, 4 h
Pseudomonas aeruginosa [9] = assay: Downregulation of pqsR mRNA expression in Pseudomonas aeruginosa PAO1 incubated for 4 hrs by RT-qPCR analysis; assay type: functional, organism-based; conditions: PAO1, 4 h
Pseudomonas aeruginosa [10] = assay: Antimicrobial activity against Pseudomonas aeruginosa assessed as reduction in microbial growth; assay type: functional, organism-based
Pseudomonas aeruginosa [11] = assay: Downregulation of lasA mRNA expression in Pseudomonas aeruginosa PAO1 incubated for 4 hrs by RT-qPCR analysis; assay type: functional, organism-based; conditions: PAO1, 4 h
Pseudomonas aeruginosa [12] = assay: Downregulation of rhlI mRNA expression in Pseudomonas aeruginosa PAO1 incubated for 4 hrs by RT-qPCR analysis; assay type: functional, organism-based; conditions: PAO1, 4 h
Pseudomonas aeruginosa [13] = assay: Antivirulence activity against Pseudomonas aeruginosa assessed as reduction in elastase level at 100 uM incubated for 24 hrs by elastin-Congo red staining based analysis relative to control; assay type: functional; set-up: scale not given: the % may be the effect or the level left
Pseudomonas aeruginosa [14] = assay: Antibiofilm activity against Pseudomonas aeruginosa PA14 assessed as reduction in biofilm formation at 1/4 sub-MIC doses incubated for 24 hrs by crystal violet staining based analysis relative to control; assay type: functional; set-up: scale not given: the % may be the effect or the level left
Pseudomonas aeruginosa [15] = assay: Antivirulence activity against Pseudomonas aeruginosa PAO1 assessed as reduction in hemolysin activity incubated for 1 hr by absorbance based analysis relative to control; assay type: functional; set-up: scale not given: the % may be the effect or the level left
Pseudomonas aeruginosa [16] = assay: Antivirulence activity against Pseudomonas aeruginosa PA22 assessed as reduction in protease production incubated for 1 hr by absorbance based analysis relative to control; assay type: functional; set-up: scale not given: the % may be the effect or the level left
Pseudomonas aeruginosa [17] = assay: Antibiofilm activity against Pseudomonas aeruginosa PA22 assessed as reduction in biofilm formation at 1/2 sub-MIC doses incubated for 24 hrs by crystal violet staining based analysis relative to control; assay type: functional; set-up: scale not given: the % may be the effect or the level left
Pseudomonas aeruginosa [18] = assay: Antivirulence activity against Pseudomonas aeruginosa PA14 assessed as reduction in hemolysin activity incubated for 1 hr by absorbance based analysis relative to control; assay type: functional; set-up: scale not given: the % may be the effect or the level left
Pseudomonas aeruginosa [19] = assay: Antibiofilm activity against Pseudomonas aeruginosa PA21 assessed as reduction in biofilm formation at 1/4 sub-MIC doses incubated for 24 hrs by crystal violet staining based analysis relative to control; assay type: functional; set-up: scale not given: the % may be the effect or the level left
Pseudomonas aeruginosa [20] = assay: Antivirulence activity against Pseudomonas aeruginosa PA24 assessed as reduction in hemolysin activity incubated for 1 hr by absorbance based analysis relative to control; assay type: functional; set-up: scale not given: the % may be the effect or the level left
Pseudomonas aeruginosa [21] = assay: Antivirulence activity against Pseudomonas aeruginosa PA22 assessed as reduction in hemolysin activity incubated for 1 hr by absorbance based analysis relative to control; assay type: functional; set-up: scale not given: the % may be the effect or the level left
Pseudomonas aeruginosa [22] = assay: Antivirulence activity against Pseudomonas aeruginosa PA14 assessed as reduction in pyocyanin production incubated for 1 hr by absorbance based analysis relative to control; assay type: functional; set-up: scale not given: the % may be the effect or the level left
Pseudomonas aeruginosa [23] = assay: Antibiofilm activity against Pseudomonas aeruginosa PA21 assessed as reduction in biofilm formation at 1/2 sub-MIC doses incubated for 24 hrs by crystal violet staining based analysis relative to control; assay type: functional; set-up: scale not given: the % may be the effect or the level left
Pseudomonas aeruginosa [24] = assay: Antivirulence activity against Pseudomonas aeruginosa PA23 assessed as reduction in pyocyanin production incubated for 1 hr by absorbance based analysis relative to control; assay type: functional; set-up: scale not given: the % may be the effect or the level left
Pseudomonas aeruginosa [25] = assay: Antibiofilm activity against Pseudomonas aeruginosa PA23 assessed as reduction in biofilm formation at 1/2 sub-MIC doses incubated for 24 hrs by crystal violet staining based analysis relative to control; assay type: functional; set-up: scale not given: the % may be the effect or the level left
Pseudomonas aeruginosa [26] = assay: Antibiofilm activity against Pseudomonas aeruginosa PAO1 assessed as reduction in biofilm formation at 16 ug/ml incubated for 2 to 4 hrs by crystal violet staining based analysis relative to control; assay type: functional; set-up: scale not given: the % may be the effect or the level left; conditions: dose 16 µg/ml; time 2-4 hrs
Pseudomonas aeruginosa [27] = assay: Antivirulence activity against Pseudomonas aeruginosa PA23 assessed as reduction in protease production incubated for 1 hr by absorbance based analysis relative to control; assay type: functional; set-up: scale not given: the % may be the effect or the level left
Pseudomonas aeruginosa [28] = assay: Antivirulence activity against Pseudomonas aeruginosa PA21 assessed as reduction in pyocyanin production incubated for 1 hr by absorbance based analysis relative to control; assay type: functional; set-up: scale not given: the % may be the effect or the level left
Pseudomonas aeruginosa [29] = assay: Antivirulence activity against Pseudomonas aeruginosa PA21 assessed as reduction in protease production incubated for 1 hr by absorbance based analysis relative to control; assay type: functional; set-up: scale not given: the % may be the effect or the level left
Pseudomonas aeruginosa [30] = assay: Antibiofilm activity against Pseudomonas aeruginosa PA14 assessed as reduction in biofilm formation at 1/2 sub-MIC doses incubated for 24 hrs by crystal violet staining based analysis relative to control; assay type: functional; set-up: scale not given: the % may be the effect or the level left
Pseudomonas aeruginosa [31] = assay: Antivirulence activity against Pseudomonas aeruginosa PA14 assessed as reduction in protease production incubated for 1 hr by absorbance based analysis relative to control; assay type: functional; set-up: scale not given: the % may be the effect or the level left
Pseudomonas aeruginosa [32] = assay: Antivirulence activity against Pseudomonas aeruginosa PAO1 assessed as reduction in protease production incubated for 1 hr by absorbance based analysis relative to control; assay type: functional; set-up: scale not given: the % may be the effect or the level left
Pseudomonas aeruginosa [33] = assay: Antivirulence activity against Pseudomonas aeruginosa PA23 assessed as reduction in hemolysin activity incubated for 1 hr by absorbance based analysis relative to control; assay type: functional; set-up: scale not given: the % may be the effect or the level left
Pseudomonas aeruginosa [34] = assay: Antivirulence activity against Pseudomonas aeruginosa PA21 assessed as reduction in hemolysin activity incubated for 1 hr by absorbance based analysis relative to control; assay type: functional; set-up: scale not given: the % may be the effect or the level left
Pseudomonas aeruginosa [35] = assay: Antivirulence activity against Pseudomonas aeruginosa PA24 assessed as reduction in protease production incubated for 1 hr by absorbance based analysis relative to control; assay type: functional; set-up: scale not given: the % may be the effect or the level left
Pseudomonas aeruginosa [36] = assay: Antibiofilm activity against Pseudomonas aeruginosa PA23 assessed as reduction in biofilm formation at 1/4 sub-MIC doses incubated for 24 hrs by crystal violet staining based analysis relative to control; assay type: functional; set-up: scale not given: the % may be the effect or the level left
Pseudomonas aeruginosa [37] = assay: Antibiofilm activity against Pseudomonas aeruginosa PA24 assessed as reduction in biofilm formation at 1/2 sub-MIC doses incubated for 24 hrs by crystal violet staining based analysis relative to control; assay type: functional; set-up: scale not given: the % may be the effect or the level left
Pseudomonas aeruginosa [38] = assay: Antibiofilm activity against Pseudomonas aeruginosa PAO1 assessed as reduction in biofilm formation at 1/4 sub-MIC doses incubated for 24 hrs by crystal violet staining based analysis relative to control; assay type: functional; set-up: scale not given: the % may be the effect or the level left
Pseudomonas aeruginosa [39] = assay: Antibiofilm activity against Pseudomonas aeruginosa PAO1 assessed as reduction in biofilm formation at 1/2 sub-MIC doses incubated for 24 hrs by crystal violet staining based analysis relative to control; assay type: functional; set-up: scale not given: the % may be the effect or the level left
Pseudomonas aeruginosa [40] = assay: Antivirulence activity against Pseudomonas aeruginosa PAO1 assessed as reduction in pyocyanin production incubated for 1 hr by absorbance based analysis relative to control; assay type: functional; set-up: scale not given: the % may be the effect or the level left
Pseudomonas aeruginosa [41] = assay: Antivirulence activity against Pseudomonas aeruginosa PA24 assessed as reduction in pyocyanin production incubated for 1 hr by absorbance based analysis relative to control; assay type: functional; set-up: scale not given: the % may be the effect or the level left
Pseudomonas aeruginosa [42] = assay: Antibiofilm activity against Pseudomonas aeruginosa PA24 assessed as reduction in biofilm formation at 1/4 sub-MIC doses incubated for 24 hrs by crystal violet staining based analysis relative to control; assay type: functional; set-up: scale not given: the % may be the effect or the level left
Pseudomonas aeruginosa [43] = assay: Antibiofilm activity against Pseudomonas aeruginosa PA22 assessed as reduction in biofilm formation at 1/4 sub-MIC doses incubated for 24 hrs by crystal violet staining based analysis relative to control; assay type: functional; set-up: scale not given: the % may be the effect or the level left
Pseudomonas aeruginosa [44] = assay: Antivirulence activity against Pseudomonas aeruginosa PA22 assessed as reduction in pyocyanin production incubated for 1 hr by absorbance based analysis relative to control; assay type: functional; set-up: scale not given: the % may be the effect or the level left

O=C(/C=C/c1ccc(O)c(O)c1)c1ccc(O)cc1O [BUTEIN]
Activity (Pseudomonas aeruginosa [1]): 72.45%
IC50 (Pseudomonas aeruginosa [2]): 50 µM

CCOP(=O)(NCCCCOc1cc(O)c2c(=O)cc(-c3ccccc3)oc2c1)OCC
IC50 (Pseudomonas aeruginosa [3]): 100 µM
Activity (Pseudomonas aeruginosa [4]): 78%
Activity (Pseudomonas aeruginosa [5]): 18.8%
Activity (Pseudomonas aeruginosa [6]): 63.8%
IC50 (Pseudomonas aeruginosa [7]): 100 µM
IC50 (Pseudomonas aeruginosa [8]): 100 µM
IC50 (Pseudomonas aeruginosa [9]): 100 µM
IC50 (Pseudomonas aeruginosa [10]): 100 µM
IC50 (Pseudomonas aeruginosa [11]): 100 µM
IC50 (Pseudomonas aeruginosa [12]): 100 µM
Activity (Pseudomonas aeruginosa [13]): 42.2%

COC(=O)c1cc(O)c(O)c(O)c1 [GALLIC ACID METHYL ESTER]
Activity (Pseudomonas aeruginosa [14]): 78.6%
Activity (Pseudomonas aeruginosa [15]): 63.9%
Activity (Pseudomonas aeruginosa [16]): 47.3%
Activity (Pseudomonas aeruginosa [17]): 82.2%
Activity (Pseudomonas aeruginosa [18]): 60.5%
Activity (Pseudomonas aeruginosa [19]): 77.8%
Activity (Pseudomonas aeruginosa [20]): 55.7%
Activity (Pseudomonas aeruginosa [21]): 57.8%
Activity (Pseudomonas aeruginosa [22]): 66.5%
Activity (Pseudomonas aeruginosa [23]): 83.3%
Activity (Pseudomonas aeruginosa [24]): 79.6%
Activity (Pseudomonas aeruginosa [25]): 83.8%
Activity (Pseudomonas aeruginosa [26]): 63%
Activity (Pseudomonas aeruginosa [27]): 27.6%
Activity (Pseudomonas aeruginosa [28]): 87.3%
Activity (Pseudomonas aeruginosa [29]): 53.6%
Activity (Pseudomonas aeruginosa [30]): 81.6%
Activity (Pseudomonas aeruginosa [31]): 40.1%
Activity (Pseudomonas aeruginosa [32]): 40.3%
Activity (Pseudomonas aeruginosa [33]): 49.8%
Activity (Pseudomonas aeruginosa [34]): 63.2%
Activity (Pseudomonas aeruginosa [35]): 42.4%
Activity (Pseudomonas aeruginosa [36]): 77.9%
Activity (Pseudomonas aeruginosa [37]): 83.7%
Activity (Pseudomonas aeruginosa [38]): 77.6%
Activity (Pseudomonas aeruginosa [39]): 83%
Activity (Pseudomonas aeruginosa [40]): 68.1%
Activity (Pseudomonas aeruginosa [41]): 78.7%
Activity (Pseudomonas aeruginosa [42]): 78.1%
Activity (Pseudomonas aeruginosa [43]): 81.5%
Activity (Pseudomonas aeruginosa [44]): 80.9%
